Reference: patent US10710951B2, “Pharmaceutical composition containing verbenone derivative for treating or preventing neurodegenerative disease” (KOREA UNIVERSITY RESEARCH AND BUSINESS FOUNDATION, priority 2012, dated 2020)

Tested on: not listed separately
Assay: DPPH assay (ability to scavenge nitrogen radicals)
Set-up: DPPH assay % inhibition: concentration or dose not given beside the values
Details: relative to vitamin C (Equation 1)
Procedure: The samples were mixed with DPPH (23.6 μg/ml, in ethanol), and incubated in dark at 37° C. for 30 minutes. The DPPH absorbance reduced by each sample was measured at 517 nm. Vitamin C (Sigma-Aldrich, St. Louis, Mo.) was used as a control, and the DPPH inhibition value (%) was calculated using the following equation: Scavenging activity (%)=[Absmax(Vit.C)−Abssample]/[Absmax(Vit.C)−Absmin(Vit.C)]×100. Equation 1
(§1) The antioxidant activities of the verbenone derivatives of the present invention were measured by the following two different chemical reactions: (1) a single electron transfer-based assay that is a […] [DPPH] assay that measures a decrease in DPPH acting as a free radical generator and a termination probe; and (2) a hydrogen atom transfer assay that is an oxygen radical absorbance capacity [[…]] assay that measures the competitive reaction kinetics of a peroxyl radical generator (AAPH; 2,2′-azobis-(2-methylpropionamide)-dihydrochloride) and each sample acting as an antioxidant for oxidizable fluorescent probe (fluorescein).

SMILES | DPPH assay % inhibition
CC1(C)[C@@H]2C[C@H]1C(C=Cc1ccc(O)cc1)=CC2=O [Compound 3a, (1S,5R)-4-(4-hydroxystyryl)-6,6-dimethylbicyclo[3.1.1]hept-3-en-2-one] | 19.11 ± 0.67%
COc1cc(O)ccc1C=CC1=CC(=O)[C@H]2C[C@@H]1C2(C)C [Compound 3b, (1S,5R)-4-(4-hydroxy-2-methoxystyryl)-6,6-dimethylbicyclo[3.1.1]hept-3-en-2-one] | 38.13 ± 5.62%
CC1(C)[C@@H]2C[C@H]1C(C=Cc1ccc(O)c(Br)c1)=CC2=O [Compound 3d, (1S,5R)-4-(3-bromo-4-hydroxystyryl)-6,6-dimethylbicyclo[3.1.1]hept-3-en-2-one] | 29.45 ± 2.41%
COc1cc(O)cc(OC)c1C=CC1=CC(=O)[C@H]2C[C@@H]1C2(C)C [Compound 3e, (1S,5R)-4-(4-hydroxy-2,6-dimethoxystyryl)-6,6-dimethylbicyclo[3.1.1]hept-3-en-2-one] | 55.80 ± 7.52%
CC1(C)[C@@H]2C[C@H]1C(C=Cc1ccccc1O)=CC2=O [Compound 3h, (1S,5R)-4-(2-hydroxystyryl)-6,6-dimethylbicyclo[3.1.1]hept-3-en-2-one] | 4.64 ± 0.60%
COc1ccc(C=CC2=CC(=O)[C@H]3C[C@@H]2C3(C)C)c(O)c1 [Compound 3i, (1S,5R)-4-(2-hydroxy-4-methoxystyryl)-6,6-dimethylbicyclo[3.1.1]hept-3-en-2-one] | 51.21 ± 3.83%

Tested on: cortical neurons
Assay: Oxygen-glucose deprivation (OGD)/reoxygenation neuronal injury, LDH release
Assay type: cell-based
Details: rat cortical neurons, OGD/reoxygenation; comparable to MK801; FIG. 1
Procedure: (§2) Cortical neurons (5×10^5 cells/ml) were isolated from fetal SD rats (16-17 days). Specifically, brain cortex was cut, and cells were isolated from the tissue by repeated trituration using a Pasteur pipette in buffer (Hanks' Balanced Salt Solution, HBSS). The cell suspension (1.8×10^3 cells/mm^2) was dispensed on a plate pretreated with poly-D-lysine ([…])/laminin ([…]). The cells were placed in 10% FBS-containing NBM medium, and incubated in a […]/5% CO2 atmosphere at 37° C. After 15-16 days of the incubation, the experiment was performed.
In order to induce hypoxic-ischemic symptoms in vitro, the incubated cells were placed in an anoxic chamber (partial oxygen pressure <2 mmHg). The cells were incubated glucose-free DMEM while being bubbled with an anaerobic gas mixture (95% N2 and 5% CO2) for 30 minutes to remove residual oxygen, and were incubated at 37° C. for 90 minutes for oxygen deprivation. After 90 minutes, the exposed solution was replaced with 25 mmol/L glucose-containing DMEM medium to stop the OGD reaction, and the cells were restored to normal oxygen conditions. Control cells not exposed to OGD were incubated in glucose (25 mmol/L)-containing DMEM medium provided with an aerobic gas mixture (95% air and 5% CO2). The cells were treated with each sample 30 minutes before, and during the entire period of OGD/re-oxygenation.
(§3) In order to measure cell injury or cell death, the amount of LDH released into the medium was measured using a cell viability measurement kit (Sigma-Aldrich, St. Louis, Mo.). Cell viability was expressed as the percentage of LDH relative to the total cellular LDH level measured in sister cultures lysed by freezing-thawing after the experiment.

SMILES | neuronal injury induced by OGD (LDH release)
CC1(C)[C@@H]2C[C@H]1C(C=Cc1ccc(O)cc1)=CC2=O [Compound 3a, (1S,5R)-4-(4-hydroxystyryl)-6,6-dimethylbicyclo[3.1.1]hept-3-en-2-one] | significantly reduced neuronal injury

Same assay, conditions: rat cortical neurons; FIG. 1

SMILES | cytotoxicity
CC1(C)[C@@H]2C[C@H]1C(C=Cc1ccc(O)cc1)=CC2=O [Compound 3a, (1S,5R)-4-(4-hydroxystyryl)-6,6-dimethylbicyclo[3.1.1]hept-3-en-2-one] | showed no cytotoxicity

Tested on: cortical neurons
Assay: NMDA-induced excitotoxicity, LDH release
Assay type: cell-based, SD rats
Set-up: dose or concentration left out as unconfirmed
Details: cultured cortical neuronal cells; sample 30 min before NMDA; lower than MK-801; FIG. 2
Procedure: as §2
After incubation on the plate for 15-18 days, the cortical neurons were exposed to NMDA ([…]) in a solution (Mg^2+-free Earle's balanced salt solution (EBSS); containing 1.8 mM CaCl2 and 10 mM glycine) for 10 minutes. After exposure, the cells were washed with MgSO4-containing EBSS solution, and incubated in 25 mmol/L glucose-containing DMEM medium in a 5% CO2 incubator at 37° C. 30 Minutes before treatment with NMDA, the cells were treated with each sample […].
as §3

SMILES | NMDA-induced neuronal injury
CC1(C)[C@@H]2C[C@H]1C(C=Cc1ccc(O)cc1)=CC2=O [Compound 3a, (1S,5R)-4-(4-hydroxystyryl)-6,6-dimethylbicyclo[3.1.1]hept-3-en-2-one] | significantly reduced NMDA-induced neuronal injury
COc1ccc(C=CC2=CC(=O)[C@H]3C[C@@H]2C3(C)C)c(O)c1 [Compound 3i, (1S,5R)-4-(2-hydroxy-4-methoxystyryl)-6,6-dimethylbicyclo[3.1.1]hept-3-en-2-one] | significantly reduced NMDA-induced neuronal injury
CC1(C)[C@@H]2C[C@H]1C(/C=C/c1ccccn1)=CC2=O [Compound 5a, (1S,5R)-6,6-dimethyl-4-((E)-2-(pyridin-2-yl)vinyl)bicyclo[3.1.1]hept-3-en-2-one] | significantly reduced NMDA-induced neuronal injury

Tested on: not listed separately
Assay: Oxygen radical absorbance capacity (ORAC) assay
Set-up: ORAC assay TE25 (trolox equivalents): dose or concentration left out as unconfirmed
Details: not given
Procedure: An ORAC assay was performed as disclosed in the literature (Huang, D. et al., J. Agric. Food Chem., 53, 1841-56, 2005).
AAPH (60 mM) and fluorescein (50 nM) were prepared in buffer (75 mM phosphate buffer, pH7.4) without a sample or a sample or a standard (Trolox). Each of the samples and the standard was suspended in a solution of 7% RMCD (randomly methylated beta-cyclodextrin) in 50% acetone. RMCD was used to increase the solubility of oil-soluble samples. Each sample was sufficiently mixed with fluorescein solution (66 nM, 190 μl) by shaking for 5 seconds. After incubation at 37° C. for 10 minutes, AAPH (500 mM, 30 μl) was quickly added to each sample, and a decrease in the fluorescence was measured using a fluorescence microplate reader (Ex=485 nm, Em=530 nm; SpectraMax GeminiEM, Molecular Devices, Sunnyvale, Calif.) at 37° C. at 5-min intervals for 9 hours. To quantify the activity of scavenging peroxyl radicals, AUC (area-under-the-curve) was calculated according to the following equation 2, and net AUC was calculated according to the following equation 3, and the TE (trolox equivalents) of each sample was calculated according to the following equation 4 based on a standard curve of net AUC plotted according to an increase in trolox concentration. AUC=(0.5+f1/f0+f2/f0+f3/f0+ . . . +fn−2/f0+fn−1/f0+fn/f0)×5, Equation 2
wherein f0 is the first fluorescence at 0 min and time I. Net AUC=AUCsample−AUCblank. Equation 3 TE(trolox equivalents) of each sample=[netAUCsample […]]/[net AUCtrolox […]]. Equation 4
as §1

SMILES | ORAC assay Net AUC
CC1(C)[C@@H]2C[C@H]1C(C=Cc1ccc(O)cc1)=CC2=O [Compound 3a, (1S,5R)-4-(4-hydroxystyryl)-6,6-dimethylbicyclo[3.1.1]hept-3-en-2-one] | 153.98 ± 1.68
COc1cc(O)ccc1C=CC1=CC(=O)[C@H]2C[C@@H]1C2(C)C [Compound 3b, (1S,5R)-4-(4-hydroxy-2-methoxystyryl)-6,6-dimethylbicyclo[3.1.1]hept-3-en-2-one] | 106.48 ± 1.89
CC1(C)[C@@H]2C[C@H]1C(C=Cc1ccc(O)c(Br)c1)=CC2=O [Compound 3d, (1S,5R)-4-(3-bromo-4-hydroxystyryl)-6,6-dimethylbicyclo[3.1.1]hept-3-en-2-one] | 168.12 ± 5.24
COc1cc(O)cc(OC)c1C=CC1=CC(=O)[C@H]2C[C@@H]1C2(C)C [Compound 3e, (1S,5R)-4-(4-hydroxy-2,6-dimethoxystyryl)-6,6-dimethylbicyclo[3.1.1]hept-3-en-2-one] | 166.26 ± 6.05
CC1(C)[C@@H]2C[C@H]1C(C=Cc1cccc(O)c1)=CC2=O [Compound 3g, (1S,5R)-4-(3-hydroxystyryl)-6,6-dimethylbicyclo[3.1.1]hept-3-en-2-one] | 73.74 ± 3.86
CC1(C)[C@@H]2C[C@H]1C(C=Cc1ccccc1O)=CC2=O [Compound 3h, (1S,5R)-4-(2-hydroxystyryl)-6,6-dimethylbicyclo[3.1.1]hept-3-en-2-one] | 98.77 ± 2.53
COc1ccc(C=CC2=CC(=O)[C@H]3C[C@@H]2C3(C)C)c(O)c1 [Compound 3i, (1S,5R)-4-(2-hydroxy-4-methoxystyryl)-6,6-dimethylbicyclo[3.1.1]hept-3-en-2-one] | 136.87 ± 3.24
CC1(C)[C@@H]2C[C@H]1C(C=Cc1ccccc1)=CC2=O [Compound 4a, (1S,5R)-6,6-dimethyl-4-styrylbicyclo[3.1.1]hept-3-en-2-one] | 27.73 ± 0.74
CC1(C)[C@@H]2C[C@H]1C(/C=C/c1ccccn1)=CC2=O [Compound 5a, (1S,5R)-6,6-dimethyl-4-((E)-2-(pyridin-2-yl)vinyl)bicyclo[3.1.1]hept-3-en-2-one] | 23.51 ± 0.79

Same assay, conditions: net AUC sample / net AUC trolox

SMILES | ORAC assay TE25 (trolox equivalents)
CC1(C)[C@@H]2C[C@H]1C(C=Cc1ccc(O)cc1)=CC2=O [Compound 3a, (1S,5R)-4-(4-hydroxystyryl)-6,6-dimethylbicyclo[3.1.1]hept-3-en-2-one] | 3.43 ± 0.04
COc1cc(O)ccc1C=CC1=CC(=O)[C@H]2C[C@@H]1C2(C)C [Compound 3b, (1S,5R)-4-(4-hydroxy-2-methoxystyryl)-6,6-dimethylbicyclo[3.1.1]hept-3-en-2-one] | 2.37 ± 0.04
CC1(C)[C@@H]2C[C@H]1C(C=Cc1ccc(O)c(Br)c1)=CC2=O [Compound 3d, (1S,5R)-4-(3-bromo-4-hydroxystyryl)-6,6-dimethylbicyclo[3.1.1]hept-3-en-2-one] | 3.74 ± 0.12
COc1cc(O)cc(OC)c1C=CC1=CC(=O)[C@H]2C[C@@H]1C2(C)C [Compound 3e, (1S,5R)-4-(4-hydroxy-2,6-dimethoxystyryl)-6,6-dimethylbicyclo[3.1.1]hept-3-en-2-one] | 3.70 ± 0.13
CC1(C)[C@@H]2C[C@H]1C(C=Cc1cccc(O)c1)=CC2=O [Compound 3g, (1S,5R)-4-(3-hydroxystyryl)-6,6-dimethylbicyclo[3.1.1]hept-3-en-2-one] | 1.64 ± 0.09
CC1(C)[C@@H]2C[C@H]1C(C=Cc1ccccc1O)=CC2=O [Compound 3h, (1S,5R)-4-(2-hydroxystyryl)-6,6-dimethylbicyclo[3.1.1]hept-3-en-2-one] | 2.20 ± 0.06
COc1ccc(C=CC2=CC(=O)[C@H]3C[C@@H]2C3(C)C)c(O)c1 [Compound 3i, (1S,5R)-4-(2-hydroxy-4-methoxystyryl)-6,6-dimethylbicyclo[3.1.1]hept-3-en-2-one] | 3.05 ± 0.07
CC1(C)[C@@H]2C[C@H]1C(C=Cc1ccccc1)=CC2=O [Compound 4a, (1S,5R)-6,6-dimethyl-4-styrylbicyclo[3.1.1]hept-3-en-2-one] | 0.61 ± 0.01
CC1(C)[C@@H]2C[C@H]1C(/C=C/c1ccccn1)=CC2=O [Compound 5a, (1S,5R)-6,6-dimethyl-4-((E)-2-(pyridin-2-yl)vinyl)bicyclo[3.1.1]hept-3-en-2-one] | 0.52 ± 0.02
